Measured values published in US8940722B2, “Compounds for modulation of orphan nuclear receptor RAR-related orphan receptor-gamma (RORγ, NR1F3) activity and for the treatment of chronic inflammatory and autoimmune disease” (Phenex Pharmaceuticals AG, priority 2010, dated 2015).

Columns and labels:
activated human PBMCs = assay: PBMC stimulation and cytokine release assay; assay type: cell-based
Procedure: Cryopreserved human PBMCs were purchased from Cellular Technology Ltd. thawed and counted as outlined in the supplier's protocol using CTL-anti-Aggregate-Wash-Supplement. Cells were washed and plated in CTL's serum free medium to −10^5 cells/well in anti-human CD3 coated 96 well T-cell activation plates (BD; Cat. No: 354725) together with anti-human CD28 antibody (BD; Cat. No: 555725) to a final concentration of 2 μg/mL. Samples were either treated with vehicle (0.1%) or small chemical molecules of the indicated concentrations.
For end point determination of cytokine production the cells were incubated for 72 h at 37° C. and 5% CO2. Supernatants were harvested and stored frozen at −80° C. until further processing. The cells were assayed for viability by incubation for 15 min with fluoresceindiacetate (5 μg/mL in PBS) and subsequent measurement of fluorescein (485 nm/535 nm).
Cytokine concentrations in the supernatants were determined in bead-based multiplex ELISA assays using Procarta Cytokine Assay Kits (Panomics) following the manufacturers instructions. The samples were read in a Luminex100 device and analysed with the IS Luminex 2.3 Software using a 5 parameter non-linear regression curve-fitting model.

[1] = target: T1, RORγ ligand binding domain (LBD) (Homo sapiens, UniProt P51449); assay: TR-FRET Activity Assay (RORγ-LBD / coactivator peptide interaction); assay type: biochemical; conditions: Table 2; read-out: RORγ activity in the TR-FRET Activity Assay (IC50 FRET), Group
T1 construct: made in house; host or cells: E. coli BL-21 (BL3), vector pDEST15
T1 sequence (P51449 269-508 limits assumed): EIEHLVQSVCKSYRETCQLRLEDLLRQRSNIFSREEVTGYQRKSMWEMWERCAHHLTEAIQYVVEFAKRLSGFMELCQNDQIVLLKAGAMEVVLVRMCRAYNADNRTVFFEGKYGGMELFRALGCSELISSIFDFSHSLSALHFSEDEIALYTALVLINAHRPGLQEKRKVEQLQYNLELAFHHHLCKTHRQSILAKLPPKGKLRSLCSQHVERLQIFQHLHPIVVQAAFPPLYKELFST
Excerpt: This method measures the ability of putative ligands to modulate the interaction between the purified bacterial expressed RORγ ligand binding domain (LBD) and synthetic N-terminally biotinylated peptides which are derived from nuclear receptor coactivator proteins such as but not limited to SRC1 (NcoA1), SRC2 (NcoA2, TIF2), SRC3 (NcoA3), PGC1α, PGC1β, CBP, GRIP1, TRAP220, RIP140.
The ligand-binding domain (LBD) of RORγ was expressed as fusion protein with GST in […] cells using the vector pDEST15. Cells were lysed by lysozyme-treatment and sonication, and the fusion proteins purified over glutathione sepharose (Pharmacia) according to the manufacturers instructions. For screening of compounds for their influence on the RORγ-peptide interaction, the LANCE technology (Perkin Elmer) was applied. This method relies on the binding dependent energy transfer from a donor to an acceptor fluorophor attached to the binding partner of interest. For ease of handling and reduction of background from compound fluorescence LANCE technology makes use of generic fluorophore labels and time resolved detection assays were done in a final volume of 25 μL in a 384 well plate, in a Tris-based buffer system (20 mM Tris-HCl pH6.8; 60 mM KCl, 1 mM DTT; 5 mM MgCl2; 35 ng/μL BSA), containing 20-60 ng/well recombinantly expressed RORγ-LBD fused to GST, 200-600 nM N-terminally biotinylated peptide, 200 ng/well Streptavidin-xIAPC conjugate (Prozyme) and 6-10 ng/well Eu W1024—antiGST (Perkin Elmer). DMSO content of the samples was kept at 1%.
After generation of the Tris-based buffer system, the potentially RORγ modulating ligands were diluted. […] The LANCE signal was detected by a Perkin Elmer EnVision™ Multilabel Counter. The results were visualized by plotting the ratio between the emitted light at 665 nm and 615 nm. […] Ligands that promote the complex formation induce a concentration-dependent increase in time-resolved fluorescent signal.
To assess the antagonistic potential of the compounds, IC50 values were determined using a Ligand Sensing Assay based on Time-resolved Fluorescence Energy Transfer (TR-FRET) as described above. The normalised TR-FRET assay values, using the following equation: 1000*665 nm measurement value/615 nm measurement value, were transferred to the program GraphPad Prism to generate graphs and dose response curves using the following equation: • Equation: Sigmoidal dose-response (variable slope) Y=Bottom+(Top−Bottom)/(1+10^((Log EC50−X)*HillSlope))
This is identical to the “four parameter logistic equation”. The IC50 values are calculated using this equation.

[2] = test system: plasma cytokines in C57/bl6 mice; assay: In vivo assay for suppression of IL-17 (MOG/CFA/PTX immunisation); design: species or system mouse; conditions: 2×10 mg/(kg×day) i.p., MOG peptide+CFA+PTX immunised mice
Excerpt: All animal models that mimic human autoimmune disease suffer from the issue that they are long lasting, require substantial amounts of exploratory drugs and do mostly not allow for monitoring IL-17 production in a simple setup. We therefore developed an in vivo assay based on an immunisation protocol that stems from a typical mouse Experimental Autoimmune Encephalomyelitis (EAE) model. Such EAE models employ the administration of certain autoimmunogenic peptides derived from i.e. Myelin Oligodendrocyte Glycoprotein (MOG) in conjunction with co-administration of a strong immune stimulants such as Complete Freund's Adjuvans (CFA) and a booster for T-cell activation such as Pertussis Toxin (PTX) to induce an autoimmune response. IL-17 producing Th17 cells are elevated under these conditions and about 14-21 days after the immunisation macroscopic signs of CNS inflammation such as impairment of movement become visible.
This immunisation scheme, while disturbing the regular development of macroscopic EAE symptoms in mice, allows for the monitoring of proinflammatory cytokines in plasma, specifically for IL-17, IL-2 and Interferon gamma IFNγ. […]

SMILES	IC50 [1] [µM]	other results
COc1ccccc1S(=O)(=O)N1Cc2ccccc2COCC1Cc1ccccc1 (centres unmarked) [Preparative Example 1, 4-Benzyl-5-(2-methoxyphenylsulfonyl)-3,4,5,6-tetrahydro-1H-benzo[f][1,4]-oxazocine]	< 0.5	effects on Th17-cytokine production in activated human PBMCs (FIG. 2) (activated human PBMCs): selective inhibitory effects
O=S(=O)(c1cccc2cccnc12)N1Cc2ccccc2COCC1CC1CCCC1 (centres unmarked) [1/44]	< 0.5	effects on Th17-cytokine production in activated human PBMCs (FIG. 2) (activated human PBMCs): selective inhibitory effects
O=S(=O)(c1cccc2cccnc12)N1Cc2ccccc2COCC1Cc1ccccc1 (centres unmarked) [1/8]	< 0.5	plasma IFNγ levels (FIG. 1) [2]: increase; plasma IL-17 levels (FIG. 1) [2]: nearly completely reduced
O=S(=O)(c1cccc2cccnc12)N1Cc2ccccc2COC[C@H]1COCC1CC1 [16/4]	0.5 to 2	effects on Th17-cytokine production in activated human PBMCs (FIG. 2) (activated human PBMCs): selective inhibitory effects
O=S(=O)(c1ccccc1OC(F)(F)F)N1Cc2nnc(C(F)(F)F)n2CCC[C@H]1Cc1ccccc1 [Preparative Example 31, (S)-8-Benzyl-9-((2-(trifluoromethoxy)phenyl)sulfonyl)-3-(trifluoromethyl)-5,6,7,8,9,10-hexahydro-[1,2,4]triazolo[4,3-a][1,4]diazocine]	> 2	–
O=S(=O)(c1cccc2cccnc12)N1Cc2ccccc2COC[C@H]1CC1CC1 [Preparative Example 20, (R)-4-(Cyclopropylmethyl)-5-(quinolin-8-ylsulfonyl)-3,4,5,6-tetrahydro-1H-benzo[f][1,4]oxazocine]	< 0.5	–
COc1ccc2c(c1)CN(S(=O)(=O)c1ccccc1OC)C(Cc1ccccc1)COC2 (centres unmarked) [1/34]	> 2	–
COc1ccccc1S(=O)(=O)N1Cc2c(C#N)cccc2COCC1Cc1ccccc1 (centres unmarked) [5/2]	> 2	–
O=S(=O)(c1cccc2cccnc12)N1Cc2ccccc2COC[C@H]1CN1CCOCC1 [17/4]	< 0.5	–
O=S(=O)(c1cc(Cl)ccc1F)N1Cc2ccccc2COCC1Cc1ccccc1 (centres unmarked) [1/18]	< 0.5	–
COc1cccc(S(=O)(=O)N2Cc3ccccc3COCC2Cc2ccccc2)c1 (centres unmarked) [1/28]	0.5 to 2	–
O=S(=O)(c1cccc2cccnc12)N1Cc2ccccc2COC[C@H]1CN1CCCCC1 [17/2]	> 2	–
O=S(=O)(c1c(Cl)cccc1Cl)N1Cc2ccccc2COCC1Cc1ccccc1 (centres unmarked) [1/23]	0.5 to 2	–
COc1ccccc1S(=O)(=O)N1Cc2ccccc2COCC1Cc1cccc(C#N)c1 (centres unmarked) [5/3]	< 0.5	–
CC(C)(O)C[C@@H]1COCc2ccccc2CN1S(=O)(=O)c1cccc2cccnc12 [Preparative Example 22, (R)-2-Methyl-1-(5-(quinolin-8-ylsulfonyl)-3,4,5,6-tetrahydro-1H-benzo[f][1,4]oxazocin-4-yl)propan-2-ol]	> 2	–
O=S(=O)(c1cccc2cccnc12)N1Cc2ccccc2COC[C@H]1COCC1CCC1 [16/3]	0.5 to 2	effects on Th17-cytokine production in activated human PBMCs (FIG. 2) (activated human PBMCs): selective inhibitory effects
O=S(=O)(c1ccccc1OC(F)(F)F)N1Cc2nccn2CCC[C@H]1Cc1ccccc1 [31/2]	0.5 to 2	–
COc1ccccc1S(=O)(=O)N1Cc2c(Br)cccc2COCC1Cc1ccccc1 (centres unmarked) [3/1]	> 2	–
CCC(C)CC1COCc2ccccc2CN1S(=O)(=O)c1cccc2cccnc12 (centres unmarked) [1/43]	< 0.5	–
COc1cccc2c1COCC(Cc1ccccc1)N(S(=O)(=O)c1cccc3cccnc13)C2 (centres unmarked) [1/40]	< 0.5	–
COc1cccc(CC2COCc3ccccc3CN2S(=O)(=O)c2cccc3cccnc23)c1 (centres unmarked) [1/38]	< 0.5	–
O=S(=O)(c1cccc2c1OCC2)N1Cc2ccccc2COCC1Cc1ccccc1 (centres unmarked) [1/9]	< 0.5	–
CC(C)(C)OC[C@@H]1COCc2ncccc2CN1S(=O)(=O)c1c(F)cccc1F [6/4]	> 2	–
